The source of these data is ChEMBL document CHEMBL4118154, “Discovery of evocalcet, a next-generation calcium-sensing receptor agonist for the treatment of hyperparathyroidism” (Bioorg Med Chem Lett, 2018).

The EC50 is the concentration needed to bring the measured effect to its halfway point. As a reminder, the IC50 is the concentration needed to halve the response being measured. A word on the inhibition: it is the change of the read-out against control, counted positive when it falls. Lower therefore signals little suppression.

The target of series [1] is T1, Extracellular calcium-sensing receptor (Homo sapiens, UniProt P41180).
T1 sequence (P41180 whole entry): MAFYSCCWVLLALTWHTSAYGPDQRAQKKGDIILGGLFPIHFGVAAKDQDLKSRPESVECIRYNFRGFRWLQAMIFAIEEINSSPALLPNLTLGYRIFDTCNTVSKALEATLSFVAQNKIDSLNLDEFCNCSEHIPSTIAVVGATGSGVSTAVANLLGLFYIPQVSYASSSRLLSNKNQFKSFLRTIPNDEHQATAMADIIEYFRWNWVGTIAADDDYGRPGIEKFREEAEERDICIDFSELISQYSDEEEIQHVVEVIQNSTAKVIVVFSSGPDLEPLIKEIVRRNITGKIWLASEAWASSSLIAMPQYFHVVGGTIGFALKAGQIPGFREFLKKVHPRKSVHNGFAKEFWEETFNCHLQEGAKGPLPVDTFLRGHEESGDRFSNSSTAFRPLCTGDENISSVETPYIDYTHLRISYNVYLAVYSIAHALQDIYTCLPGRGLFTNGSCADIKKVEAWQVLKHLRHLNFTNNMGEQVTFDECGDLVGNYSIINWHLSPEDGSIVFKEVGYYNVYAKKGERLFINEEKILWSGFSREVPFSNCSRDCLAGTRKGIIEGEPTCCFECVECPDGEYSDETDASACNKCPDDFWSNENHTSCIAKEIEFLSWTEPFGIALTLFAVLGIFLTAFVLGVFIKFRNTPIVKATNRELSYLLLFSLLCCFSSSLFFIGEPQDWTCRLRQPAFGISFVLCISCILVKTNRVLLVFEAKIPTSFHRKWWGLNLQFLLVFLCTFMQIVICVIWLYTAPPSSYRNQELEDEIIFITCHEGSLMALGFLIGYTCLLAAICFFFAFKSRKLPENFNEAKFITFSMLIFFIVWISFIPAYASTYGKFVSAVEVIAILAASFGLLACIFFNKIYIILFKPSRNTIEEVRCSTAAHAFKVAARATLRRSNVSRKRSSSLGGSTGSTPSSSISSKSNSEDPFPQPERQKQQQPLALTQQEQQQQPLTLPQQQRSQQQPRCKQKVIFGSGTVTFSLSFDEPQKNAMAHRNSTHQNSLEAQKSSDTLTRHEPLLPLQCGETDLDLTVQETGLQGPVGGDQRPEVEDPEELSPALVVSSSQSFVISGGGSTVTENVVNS
The experiment in a line: Agonist activity at human CaSR expressed in CHO cells assessed as increase in intracellular calcium mobilization after 1 hr by Fura-2 dye-based fluorescence assay. In kind it is functional, cell-based. (A change in cytosolic calcium serves as a functional read-out for many receptors and channels.)

The target in series [2] is Cytochrome P450 2D6 (Homo sapiens, UniProt P10635). The experiment in a line: Inhibition of recombinant human CYP2D6 expressed in bacterial membranes using AMMC as substrate preincubated for 10 mins followed by NADPH addition measured after 30 mins by fluorescence assay. The series is classed as ADME, cell membranes.
The target of series [3] is T2, Extracellular calcium-sensing receptor (Rattus norvegicus, UniProt P48442).
T2 sequence (P48442 whole entry): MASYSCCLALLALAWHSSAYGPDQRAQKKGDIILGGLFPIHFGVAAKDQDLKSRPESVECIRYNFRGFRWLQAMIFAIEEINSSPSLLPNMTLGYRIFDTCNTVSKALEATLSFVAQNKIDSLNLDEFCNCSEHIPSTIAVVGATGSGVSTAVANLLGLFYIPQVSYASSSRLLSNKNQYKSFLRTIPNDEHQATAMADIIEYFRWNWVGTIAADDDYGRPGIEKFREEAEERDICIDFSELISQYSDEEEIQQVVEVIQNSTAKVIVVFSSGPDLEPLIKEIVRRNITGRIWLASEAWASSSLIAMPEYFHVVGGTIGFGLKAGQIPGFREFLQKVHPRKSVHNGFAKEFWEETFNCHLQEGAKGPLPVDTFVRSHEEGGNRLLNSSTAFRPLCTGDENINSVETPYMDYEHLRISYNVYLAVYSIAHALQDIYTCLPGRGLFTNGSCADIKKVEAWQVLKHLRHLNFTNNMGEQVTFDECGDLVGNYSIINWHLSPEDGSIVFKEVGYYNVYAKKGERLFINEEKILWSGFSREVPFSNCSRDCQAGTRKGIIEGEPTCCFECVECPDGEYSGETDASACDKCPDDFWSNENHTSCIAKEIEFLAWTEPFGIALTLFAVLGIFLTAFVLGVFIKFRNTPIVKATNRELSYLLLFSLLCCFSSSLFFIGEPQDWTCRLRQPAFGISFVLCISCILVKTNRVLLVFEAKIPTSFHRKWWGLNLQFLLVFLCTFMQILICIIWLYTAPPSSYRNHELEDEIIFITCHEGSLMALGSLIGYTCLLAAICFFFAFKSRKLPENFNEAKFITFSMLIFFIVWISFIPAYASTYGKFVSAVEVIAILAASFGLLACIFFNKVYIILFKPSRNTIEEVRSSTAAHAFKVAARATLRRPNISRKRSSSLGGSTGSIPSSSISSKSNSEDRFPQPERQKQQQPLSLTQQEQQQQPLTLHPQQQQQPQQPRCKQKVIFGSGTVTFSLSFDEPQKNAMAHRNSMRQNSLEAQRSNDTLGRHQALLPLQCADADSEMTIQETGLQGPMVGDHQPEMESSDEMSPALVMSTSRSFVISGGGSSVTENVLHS
Kind of series: Agonist activity at CaSR in rat parathyroid cells assessed as inhibition of PTH (1 to 84 residues) production in presence of Cacl2 by ELISA. In kind it is functional, cell-based.

Series [4] has as its target T3, CYP2D6 (Homo sapiens, UniProt P10635). The experiment in a line: Inhibition of CYP2D6 (unknown origin) at 10 uM relative to control. The series is classed as ADME.
Series [5] concerns the target T3, CYP2D6. The experiment in a line: Inhibition of CYP2D6 (unknown origin) at 1 uM relative to control. The series is classed as ADME.
The target of series [6] is T3, CYP2D6. The experiment in a line: Inhibition of CYP2D6 (unknown origin) at 0.1 uM relative to control. The series is classed as ADME.
Series [7] can be described thus: Intrinsic clearance in human liver microsomes assessed per protein. The series is classed as ADME, microsome. The settings on record: read-out: CLH. For orientation: Liver microsomes are a subcellular fraction often used to study metabolism.
Series [8] is described as follows: Intrinsic clearance in rat liver microsomes assessed per protein. In kind it is ADME, microsome. The settings on record: read-out: CLH.

Counter-ions that a name gives are not always drawn. Where only a bound is given, the exact number is not on record here.

T3 sequence (P10635 whole entry): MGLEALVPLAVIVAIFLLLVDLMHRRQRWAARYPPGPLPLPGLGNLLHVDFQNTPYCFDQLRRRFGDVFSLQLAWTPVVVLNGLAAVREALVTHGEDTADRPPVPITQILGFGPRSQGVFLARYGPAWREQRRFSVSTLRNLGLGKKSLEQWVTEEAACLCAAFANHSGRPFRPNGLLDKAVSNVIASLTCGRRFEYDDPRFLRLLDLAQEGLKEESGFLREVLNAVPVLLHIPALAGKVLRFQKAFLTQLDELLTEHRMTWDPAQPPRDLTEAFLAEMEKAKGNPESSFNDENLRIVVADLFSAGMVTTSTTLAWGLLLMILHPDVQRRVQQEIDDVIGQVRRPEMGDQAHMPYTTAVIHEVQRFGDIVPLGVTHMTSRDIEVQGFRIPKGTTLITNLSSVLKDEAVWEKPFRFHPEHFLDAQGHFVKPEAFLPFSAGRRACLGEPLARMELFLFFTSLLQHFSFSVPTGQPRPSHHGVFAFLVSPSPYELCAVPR
Cytochrome P450 2D6, sequence (P10635 whole entry): as above

For the compound `C[C@@H](NCCCc1cccc(C(F)(F)F)c1)c1cccc2ccccc12` [CINACALCET HYDROCHLORIDE], the EC50 in series [1] is 180 nM. Besides, the IC50 in series [2] was less than 100 nM.
As to `C[C@@H](N[C@@H]1CCCN(c2cccc(C(F)(F)F)c2)C1)c1cccc2ccccc12`, the EC50 in series [1] stood at 380 nM. Moreover, the IC50 in series [3] worked out at 2.1 nM. In series [4], this compound gave an inhibition at 10 µM of 87.6%. In series [5], this compound registered an inhibition at 1 µM of 78.7%. The same compound registered an inhibition at 0.1 µM in series [6] of 54.8%. The microsomal CLint worked out at 662 µL/min/mg in series [7] and 610 µL/min/mg in series [8].
Regarding `C[C@@H](N[C@H]1CCCN(c2ccc(C(=O)O)cc2)C1)c1cccc2ccccc12`, the 50% effective concentration (EC50) in series [1] was found to be 1100 nM. Besides, the IC50 in series [3] was more than 100 nM.
On to `C[C@@H](N[C@@H]1CCN(c2cccc(OC(F)(F)F)c2)C1)c1cccc2ccccc12`, for which, in series [1], the EC50 came to 320 nM. Besides, in series [3], the IC50 was 4.3 nM. The same compound registered an inhibition at 1 µM in series [5] of 61.2%. In series [6], this compound showed an inhibition at 0.1 µM of 15.8%. Also, the microsomal CLint in series [7] was determined as 206 µL/min/mg; in series [8], 270 µL/min/mg.
On to `C[C@@H](N[C@H]1CCN(c2ccc(-c3nn[nH]n3)cc2)C1)c1cccc2ccccc12`, for which the EC50 in series [1] came to 17 nM. In series [3], the IC50 is 0.47 nM. In series [4], this compound displayed an inhibition at 10 µM of 75.3%. The microsomal CLint worked out at 312 µL/min/mg in series [7] and 42 µL/min/mg in series [8].
As for `C[C@@H](N[C@H]1CCN(c2cccc(C(F)(F)F)c2)C1)c1cccc2ccccc12`, the EC50 in series [1] stood at 450 nM. Moreover, in series [3], the IC50 worked out at 13.1 nM. Testing at 1 µM in series [5] gave an inhibition of 87.5%. The compound further gave an inhibition at 0.1 µM in series [6] of 85.1%. Further, the figures for the microsomal CLint in series [7] and in series [8] were 171 µL/min/mg and 370 µL/min/mg, respectively.
As to `C[C@@H](N[C@@H]1CCN(c2ccc(C(=O)O)cc2)C1)c1cccc2ccccc12`, the EC50 in series [1] turned out to be 8800 nM.
For `C[C@@H](N[C@H]1CCN(c2ccc(C(=O)NCCO)cc2)C1)c1cccc2ccccc12`, the EC50 in series [1] is 50 nM. Also, the IC50 in series [3] came out at 0.91 nM. In series [4], the inhibition at 10 µM was found to be 30.7%. For the same compound, in series [5], the inhibition at 1 µM worked out at 3.4%. In addition, the inhibition at 0.1 µM in series [6] worked out at 4.4%. Also, the microsomal CLint in series [7] was 197 µL/min/mg; in series [8], 667 µL/min/mg.
Consider `C[C@@H](N[C@@H]1CCN(c2cccc(C(F)(F)F)c2)C1)c1cccc2ccccc12`, for which the EC50 in series [1] amounted to 430 nM. Also, the IC50 in series [3] is 9.7 nM. Further, the inhibition at 1 µM in series [5] turned out to be 60%. In addition, the inhibition at 0.1 µM in series [6] is 3%. In addition, the microsomal CLint in series [7] was found to be 421 µL/min/mg; in series [8], 302 µL/min/mg.
Take `C[C@@H](N[C@H]1CCN(c2cccc(OC(F)(F)F)c2)C1)c1cccc2ccccc12`: the EC50 in series [1] worked out at 600 nM. The IC50 in series [3] was determined as 11.7 nM. Moreover, at 1 µM the inhibition in series [5] was 88.4%. The same compound showed an inhibition at 0.1 µM in series [6] of 85.9%. Besides, the microsomal CLint in series [7] came out at 84 µL/min/mg; in series [8] it was 176 µL/min/mg.
With `C[C@@H](N[C@@H]1CCN(c2ccc(OC(F)(F)F)cc2)C1)c1cccc2ccccc12`, the EC50 in series [1] was found to be 230 nM. Further, the IC50 in series [3] is 116 nM.
Turning to `C[C@@H](N[C@H]1CCCN(c2cccc(OC(F)(F)F)c2)C1)c1cccc2ccccc12`, in series [1], the EC50 was 600 nM. Further, in series [3], the IC50 worked out at 31.8 nM. 10 µM produced 92.5% inhibition in series [4]. The compound also yielded an inhibition at 1 µM in series [5] of 86.4%. In series [6], at 0.1 µM the inhibition was 79%. In addition, the microsomal CLint was found to be 225 µL/min/mg in series [7] and 442 µL/min/mg in series [8].
With `C[C@@H](N[C@H]1CCN(c2ccc(C(=O)O)cc2)C1)c1cccc2ccccc12`, the IC50 in series [3] was 8 nM. In series [4], this compound came in with an inhibition at 10 µM of 14.1%. The inhibition at 1 µM in series [5] worked out at 14.1%. In series [6], the inhibition at 0.1 µM was determined as 0%. Besides, the microsomal CLint was found to be 97 µL/min/mg in series [7] and 92 µL/min/mg in series [8].
Turning to `C[C@@H](N[C@@H]1CCCN(c2cccc(OC(F)(F)F)c2)C1)c1cccc2ccccc12`, the EC50 in series [1] turned out to be 190 nM. In addition, the IC50 in series [3] was 1.4 nM. Further, 10 µM produced 85.2% inhibition in series [4]. In series [5], this compound showed an inhibition at 1 µM of 82.6%. This compound had an inhibition at 0.1 µM in series [6] of 54%. The microsomal CLint was 370 µL/min/mg in series [7] and 231 µL/min/mg in series [8].
On to `C[C@@H](N[C@H]1CCN(c2ccc(OC(F)(F)F)cc2)C1)c1cccc2ccccc12`, for which the EC50 in series [1] is 120 nM. For the same compound, the IC50 in series [3] stood at 7.8 nM. The same compound displayed an inhibition at 10 µM in series [4] of 79.8%. Besides, the inhibition at 1 µM in series [5] was found to be 62.5%. In series [6], this compound registered an inhibition at 0.1 µM of 15.8%.
